From patent US20210023234A1, “ECTONUCLEOTIDE PYROPHOSPHATE-PHOSPHODIESTERASE (ENPP) CONJUGATES AND USES THEREOF” (AbbVie Inc., priority 2018, published 2021)

What was measured:
[1] = biological target: T1, human ENPP-1 enzyme (Homo sapiens, UniProt P22413); assay: ENPP1 Enzyme Assay with cGAMP Substrate (AMP-Glo); type: biochemical; settings: 20 μM 2′3′-cGAMP substrate, 5 ng/well enzyme; for inhibition at 1 µM: 1 uM compound; for inhibition at 10 µM: 10 uM compound
T1 construct: purchased R&D Systems
T1 sequence (P22413 1-925): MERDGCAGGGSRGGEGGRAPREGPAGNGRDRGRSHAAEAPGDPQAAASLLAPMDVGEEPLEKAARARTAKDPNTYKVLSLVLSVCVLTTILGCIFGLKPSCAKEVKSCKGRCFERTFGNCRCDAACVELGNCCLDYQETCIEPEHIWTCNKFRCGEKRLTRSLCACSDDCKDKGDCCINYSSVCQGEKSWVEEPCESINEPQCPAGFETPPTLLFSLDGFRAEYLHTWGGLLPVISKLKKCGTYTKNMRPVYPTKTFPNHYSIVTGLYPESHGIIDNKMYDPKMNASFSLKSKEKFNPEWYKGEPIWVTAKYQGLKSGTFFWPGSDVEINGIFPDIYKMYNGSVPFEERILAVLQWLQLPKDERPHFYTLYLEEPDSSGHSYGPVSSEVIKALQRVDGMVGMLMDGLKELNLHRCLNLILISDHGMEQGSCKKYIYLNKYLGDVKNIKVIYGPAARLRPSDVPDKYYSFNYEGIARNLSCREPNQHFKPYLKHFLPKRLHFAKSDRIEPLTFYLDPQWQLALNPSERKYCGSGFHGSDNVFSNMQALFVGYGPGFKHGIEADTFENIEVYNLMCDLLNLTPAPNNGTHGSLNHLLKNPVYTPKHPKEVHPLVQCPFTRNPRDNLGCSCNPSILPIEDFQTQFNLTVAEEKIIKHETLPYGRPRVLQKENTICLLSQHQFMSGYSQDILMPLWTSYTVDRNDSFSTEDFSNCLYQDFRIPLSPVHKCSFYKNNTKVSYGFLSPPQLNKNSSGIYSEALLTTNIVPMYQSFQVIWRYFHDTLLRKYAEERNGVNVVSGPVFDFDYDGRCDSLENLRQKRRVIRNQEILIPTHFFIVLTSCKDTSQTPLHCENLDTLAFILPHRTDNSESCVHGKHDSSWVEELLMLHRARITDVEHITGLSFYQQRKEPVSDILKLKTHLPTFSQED
From the text: ENPP1 Enzyme Assay with cGAMP Substrate:
Ectonucleotide pyrophosphatase/phosphodiesterase 1 (ENPP-1) is a transmembrane glycoprotein that hydrolyzes nucleotides and nucleotide derivatives with the formation of nucleoside-5′-monophosphates. ENPP-1 hydrolyzes 2′3′-cGAMP (cGAMP), breaking it down into 5′-AMP and 5′-GMP. The 5′-AMP formed from the reaction is detected using the AMP-Glo® Kit (Promega). The assay kit contains two reagents. The first reagent terminates the enzymatic reaction, removes ATP (using adenylyl cyclase), and converts 5′-AMP produced into ADP (using polyphosphate: AMP phosphotransferase). The second reagent converts ADP to ATP (using adenylate kinase) and generates light from ATP using the luciferin/luciferase reaction. The amount of light measured is proportional to the amount of 5′-AMP produced by ENPP1.
Different concentrations of exemplary ENPP1 inhibitors (synthetic molecules #1-7; see Table 1) were pre-incubated with 5 ng/well of human ENPP-1 enzyme (R&D Systems) for 15 minutes at 37° C. The reaction was initiated by adding 20 μM 2′3′-cGAMP and incubating for 30 minutes at 37° C. The final assay reaction mixture contained a buffer of 50 mM Tris pH 8.0, 250 mM NaCl, 0.5 mM CaCl2, 1 μM ZnCl2 and 1% DMSO. At the end of the incubation, the reaction was stopped by adding 12 μl of AMP-Glo reagent-1 and mixing the reaction uniformly for 5 minutes, followed by incubation at room temperature for one hour. Then 25 μl of AMP Glo reagent-2 was added to the reaction, mixed uniformly with a pipette, and incubated at room temperature for one hour to convert the ADP formed from reagent-1 to ATP and light. The generated light was measured in a Perkin Elmer Victor® instrument. Maximal activity control samples (containing enzyme, substrate, and buffer in the absence of ENPP1 inhibitors: MAX) and background control samples (containing enzyme, substrate, and buffer plus a fully inhibitory concentration (3 μM) of the reference ENPP1 Inhibitor, MV-0000002: MIN) were simultaneously evaluated in order to calculate the percent inhibition at each compound concentration as follows:
% inhibition=(([MAX−MIN]−[COMPOUND−MIN])/[MAX−MIN])*100
The IC50 values for percent inhibition versus compound concentration were determined by fitting the inhibition curves using a four-parameter variable slope model in GraphPad Prism® software. Ki values are derived from the IC50 values using the Cheng-Prusoff equation: […]

[2] = biological target: T1, human ENPP-1 enzyme; assay: ENPP1 Enzyme Assay with TMP-pNP Substrate (absorbance at 405 nm); type: biochemical; settings: read-out: TMP-pNP: % inhibition at 10 uM; 10 uM compound; 200 μM TMP-pNP substrate; 15 ng/well enzyme
Description: ENPP1 Enzyme Assay with TMP-pNP Substrate:
ENPP-1 hydrolyzes thymidine 5′monophosphate p-nitrophenyl ester (TMP-pNP) to nucleotide-5′-monophosphate and p-nitrophenol, which is a chromogenic product. The amount of p-nitrophenol product formed is measured using its absorbance at 405 nm, which is directly proportional to enzyme activity. Different concentrations of inhibitors (synthetic molecules #1-7; see Table 1) were pre-incubated with 15 ng/well of human ENPP-1 enzyme (R&D Systems) for 15 minutes at 37° C. The reaction was initiated by adding 200 μM TMP-pNP and incubating for 10 minutes at 37° C. […] The amount of product formed was measured directly ina Tecan® spectrophotometer. Maximal activity control samples (containing enzyme, substrate, and buffer in the absence of ENPP1 inhibitors: MAX) and background control samples (containing enzyme, substrate, and buffer plus a fully inhibitory concentration (3 μM) of the reference ENPP1 Inhibitor, MV-0000002: MIN) are simultaneously evaluated in order to calculate the percent inhibition at each compound concentration as follows: […]
The IC50 values for percent inhibition versus compound concentration were determined by fitting the inhibition curves (percent inhibition versus inhibitor concentration) using a four-parameter variable slope model in GraphPad Prism® software. […]

Row | SMILES | inhibition at 1 µM [1] | inhibition at 10 µM [2] | inhibition at 10 µM [1]
1 | COc1cc2ncc(C(N)=O)c(N3CCC(CCNS(N)(=O)=O)CC3)c2cc1OC [compound 2, 6,7-dimethoxy-4-(4-(2-(sulfamoylamino)ethyl)piperidin-1-yl)quinoline-3-carboxamide] | ≥ 75% | ≥ 75% | 
2 | Cn1ncc2c(N3CCC(CCNS(N)(=O)=O)CC3)ncnc21 [compound 3, N-(2-(1-(1-methyl-1H-pyrazolo[3,4-d]pyrimidin-4-yl)piperidin-4-yl)ethyl)sulfonic amide] |  |  | ≥ 75%
3 | COc1cc2ncnc(N3CCC4(CC3)CN(S(N)(=O)=O)C4)c2cc1OC [compound 5, 7-(6,7-dimethoxyquinazolin-4-yl)-2,7-diazaspiro[3.5]nonane-2-sulfonamide] |  | ≥ 75% | ≥ 75%
4 | COc1cc2ncnc(N3CCc4c(cccc4S(N)(=O)=O)C3)c2cc1OC [compound 6, 2-(6,7-dimethoxyquinazolin-4-yl)-1,2,3,4-tetrahydroisoquinoline-5-sulfonamide] | ≥ 75% |  | 
5 | COc1cc2ncnc(NCCc3cccc(NS(N)(=O)=O)c3)c2cc1OC [compound 7, N-(3-(2-((6,7-dimethoxyquinazolin-4-yl)amino)ethyl)phenyl)sulfonic amide] |  |  | ≥ 75%
